From publication PMC8778818, “Synthesis, Structural Characterization and Anticancer Activity of New 5-Trifluoromethyl-2-thioxo-thiazolo[4,5-d]pyrimidine Derivatives” (Pharmaceuticals, 2022)

How the values were obtained:
A375 = experiment: MTT cell viability assay, A375; format: cell-based, human; settings: A375, MTT, mean ± SD
Experimental: (§1) Twelve compounds (2a-e, 3a-d and 4a-c) at a concentration range of 50–5000 μM were tested for their antiproliferative potential against four human cancer cell lines (A375—melanotic melanoma, C32—amelanotic melanoma, DU145—prostate cancer androgen-independent, MCF-7/WT—breast adenocarcinoma) and two normal cell lines: Chinese Hamster Ovary (CHO-K1) and immortalized human keratinocytes from histologically normal skin (HaCaT).
(§2) To determine the antiproliferative activity of newly synthesized compounds, the following cell lines were used: human melanotic melanoma cell line (A375), human amelanotic melanoma cell line (C32), human breast adenocarcinoma cell line (MCF-7/WT), human prostate cancer androgen-independent (DU145) and two normal cell lines: hamster ovarian (CHO-K1) and immortalized human keratinocytes from histologically normal skin (HaCaT). The cells were obtained from the cell line bank of the Department of Molecular and Cellular Biology, Wroclaw Medical University. A375, C32, MCF-7/WT, DU145 and HaCaT cells were grown in a monolayer cultured in Dulbecco’s Modified Eagle’s Medium (DMEM, Sigma-Aldrich, Poznań, Poland), supplemented with 10% of fetal bovine serum (FBS, Gibco, Paisley, UK) and 1% of antibiotics (penicillin/streptomycin, Sigma-Aldrich) and CHO-K1 were grown in HAM’s F-12 medium (Sigma-Aldrich), supplemented with 10% fetal bovine serum (FBS, Gibco) and 1% of antibiotics (penicillin/streptomycin, Sigma-Aldrich). Cell lines were cultured in the polystyrene flasks 25 or 75 cm^2 (Thermo Fisher Scientific, Waltham, MA, USA), which were stored in 37 °C and 5% CO2 in a humidified 95% atmosphere (SteriCult, Thermo Scientific, Alab). The cell medium was exchanged twice a week. The exponentially growing cells were used throughout the experiments. The cells were rinsed with phosphate-buffered saline (PBS, Sigma-Aldrich) and trypsinized by Trypsin-EDTA 0.25% solution (Sigma-Aldrich).
(§3) The influence of the compounds was performed in a monolayer culture on cancer and normal cells. Compounds were initially dissolved in DMSO; further dilutions of the compound were performed in Dulbecco’s Modified Eagle’s Medium supplemented with 10% FBS. Compounds were tested in a 50–5000 µM concentration range. In the in vitro experiments, the concentrations of DMSO in the final solution of the compounds were used 0.05%; 0.1%; 0.5%; 1%, respectively.
(§4) Cell viability was determined using the MTT colorimetric assay. All cell lines were seeded into 96-well plates to a density of 3 × 10^4 cells/well. After 24 h, the culture supernatants were removed and appropriate dilutions of compounds in the culture medium (200 µL/well) were added to the cells’ monolayer cultures and incubated for an additional 72 h. After 72 h of exposition to the compounds and the removal of the culture medium, cell viability was determined by reducing the yellow dye 3-(4,5-dimethyl-2-thiazol)-2,5-diphenyl-2H-tetrazolium bromide (MTT assay, Sigma Saint Louis, MO, USA; In Vitro Toxicology Assay) to a blue formazan product. The absorbance of the resulting solutions in three duplicate experiments was measured at the wavelength of 560 nm in a microplate reader (EnSpire, Perkin Elmer, Kraków, Poland). MTT assay is a colorimetric method that estimates the rate of metabolism in viable cells. Absorbance is directly proportional to the number of viable cells. All the experiments were performed three times and the mean absorbance values were calculated. The methodology for the evaluation of the growth of human cancer and normal cells was described previously. The cell viability in each group was expressed as a percentage of control (untreated) cells.

C32 = experiment: MTT cell viability assay, C32; format: cell-based, human; settings: for IC50: Homo sapiens, C32, MTT, 72 h, mean ± SD; for cytotoxic effect (in words): C32, 72 h
Experimental: as §1, §2, §3, §4

DU145 = experiment: MTT cell viability assay, DU145; format: cell-based, human; settings: for IC50: Homo sapiens, DU-145, DU145, MTT, 72 h, mean ± SD; for cytotoxic effect (in words): DU145, 72 h
Experimental: as §1, §2, §3, §4

MCF-7/WT = experiment: MTT cell viability assay, MCF-7/WT; format: cell-based; settings: Homo sapiens, MCF7, 72 h, mean ± SD
Experimental: as §1, §2, §3, §4

CHO-K1 = experiment: MTT cell viability assay, CHO-K1; format: cell-based, Chinese Hamster; settings: CHO-K1 normal cells, 72 h; for IC50: Cricetulus griseus, MTT, mean ± SD
Experimental: as §1, §2, §3, §4

HaCaT = experiment: MTT cell viability assay, HaCaT; format: cell-based, human; settings: 72 h; for IC50: Homo sapiens, HaCaT normal cells, MTT, mean ± SD; for cytotoxic effect (in words): HaCaT human keratinocytes
Experimental: as §1, §2, §3, §4

[1] = system: A375, C32, DU145, MCF-7/WT, CHO-K1 and HaCaT cell lines; experiment: MTT cell viability assay, all six cell lines; format: cell-based; settings: mean over the six cell lines; read-out: Mean A: the mean IC50 for the given compound
Experimental: as §1, §2, §3, §4

[2] = system: 60 human cancer cell lines; design: method as in PMID 579132; settings: cited from earlier work; for Mean Growth %: 10^−5 M one dose, mean over the panel, analogs I–VII
HOP-92 = system: HOP-92; design: method as in PMID 579132; settings: NS Cell Lung C. HOP-92, 10^−5 M one dose; cited from earlier work
RPMI-8226 = system: RPMI-8226; design: method as in PMID 579132; settings: Leukemia, 10^−5 M one dose; cited from earlier work
UACC-62 = system: UACC-62; design: method as in PMID 579132; settings: Melanoma UACC-62, 10^−5 M one dose; cited from earlier work
UO-31 = system: UO-31; design: method as in PMID 579132; settings: Renal C. UO-31, 10^−5 M one dose; cited from earlier work
SF-295 = system: SF-295; design: method as in PMID 579132; settings: CNS C. SF-295, 10^−5 M one dose; cited from earlier work
[3] = values > −4.00 excluded, analogs IV and V

SMILES	IC50 (A375; Homo sapiens, A-375, 72 h) [µM]	IC50 (C32) [µM]	IC50 (DU145) [µM]	IC50 (MCF-7/WT) [µM]	IC50 (CHO-K1) [µM]	IC50 (HaCaT) [µM]	IC50 [1] [µM]	Mean Growth % [2] [%]	also measured
O=c1[nH]c(C(F)(F)F)nc2c1sc(=S)n2-c1cccc(F)c1 [Compound 2d, 3-(3-fluorophenyl)-2-thioxo-5-(trifluoromethyl)-2,3-dihydro[1, 3]thiazolo[4,5-d]pyrimidin-7(6H)-one]	531 ± 22.4	384 ± 16.2	121 ± 5.1	519 ± 21.9	553 ± 23.3	725 ± 30.6	472	–	–
Fc1ccccc1-n1c(=S)sc2c(Cl)nc(C(F)(F)F)nc21 [Compound 3c, 7-chloro-(2-fluoropheny)-5-(trifluoromethyl)[1, 3]thiazolo[4,5-d]pyrimidine-2(3H)-thione]	108 ± 2.6	86.4 ± 2.1	168 ± 4	248 ± 6	93.8 ± 2.3	37.8 ± 0.9	124	–	cytotoxic effect (in words) (C32): strong cytotoxic effect; cytotoxic effect (in words) (CHO-K1): strong cytotoxic effect; cytotoxic effect (in words) (HaCaT): strong cytotoxic effect
Fc1cccc(-n2c(=S)sc3c(Cl)nc(C(F)(F)F)nc32)c1 [Compound 3d, 7-chloro-(3-fluoropheny)-5-(trifluoromethyl)[1, 3]thiazolo[4,5-d]pyrimidine-2(3H)-thione]	103	87.4 ± 2.9	126 ± 4.2	540 ± 17.9	512 ± 17	360 ± 11.9	288	–	IC50 (A375; 72 h): 104 ± 3.4 µM; cytotoxic effect (in words) (C32): strong cytotoxic effect; cytotoxic effect (in words) (CHO-K1): non-toxic; cytotoxic effect (in words) (HaCaT): non-toxic
CCn1c(=S)sc2c(Cl)nc(C(F)(F)F)nc21 [Compound 3a, 7-chloro-3-ethyl-5-(trifluoromethyl)[1, 3]thiazolo[4,5-d]pyrimidine-2(3H)-thione]	142 ± 3.6	89.3 ± 2.3	72.5 ± 1.9	356 ± 9.1	122 ± 3.1	88.3 ± 2.3	145	–	cytotoxic effect (in words) (C32): strong cytotoxic effect; cytotoxic effect (in words) (DU145): strong cytotoxic effect; cytotoxic effect (in words) (HaCaT): strong cytotoxic effect; melting point: 66 to 67 °C
O=c1[nH]c(-c2cccnc2)nc2c1sc(=S)n2-c1ccccc1 [III]	–	–	–	–	–	–	–	105.59	Growth % of the most sensitive cell line (HOP-92): 73.81%
O=c1[nH]c(-c2ccc(Cl)cc2)nc2c1sc(=S)n2-c1ccccc1 [I]	–	–	–	–	–	–	–	80.85	Growth % of the most sensitive cell line (RPMI-8226): 29.76%
Fc1ccc(CNc2nc(-c3ccc(F)cc3)nc3c2sc(=S)n3-c2ccccc2)cc1 [VII]	–	–	–	–	–	–	–	89.50	Growth % of the most sensitive cell line (UACC-62): 54.52%
O=c1[nH]c(C(F)(F)F)nc2c1sc(=S)n2-c1ccc(F)cc1 [Compound 2e, 3-(4-fluoropheny)l-2-thioxo-5-(trifluoromethyl)-2,3-dihydro[1, 3]thiazolo[4,5-d]pyrimidin-7(6H)-one]	379 ± 13.5	355 ± 12.6	139 ± 5	434 ± 15.5	483 ± 17.2	234 ± 8.3	337	–	melting point: 259 to 260 °C
O=c1[nH]c(C(F)(F)F)nc2c1sc(=S)n2-c1ccccc1F [Compound 2c, 3-(2-fluoropheny)l-2-thioxo-5-(trifluoromethyl)-2,3-dihydro[1, 3]thiazolo[4,5-d]pyrimidin-7(6H)-one]	450 ± 17.6	364 ± 14.3	163 ± 6.4	420 ± 16.5	525 ± 20.6	543 ± 21.3	411	–	melting point: 211 to 212 °C
S=c1sc2c(Cl)nc(-c3cccnc3)nc2n1-c1ccccc1 [IV]	–	–	–	–	–	–	–	20.78	log TGI Δ ([2]; logarithmic difference between most sensible cell line and MG_MID, analog IV): 1.12; N2: number of cell lines giving positive log TGI (≤−4.01) ([2]; of N = 59 tested cell lines, analogs IV and V): 7; log GI50 Range [2, 3]: −5.28 to −6.26 log M; log LC50 Range [2, 3]: −5.17 to −5.26 log M; log TGI Range [2, 3]: −4.52 to −5.51 log M; Growth % of the most sensitive cell line (UO-31): −85.59%
CNc1nc(C(F)(F)F)nc2c1sc(=S)n2-c1ccccc1 [Compound 4a, 7-(methylamino)-3-phenyl-5-(trifluoromethyl)[1, 3]thiazolo[4,5-d]pyrimidine-2(3H)-thione]	114 ± 3.5	132 ± 4.1	96.9 ± 3	144 ± 4.4	48.5 ± 1.5	748 ± 22.9	214	–	cytotoxic effect (in words) (DU145): high cytotoxicity; cytotoxic effect (in words) (CHO-K1): high cytotoxicity; melting point: 197 to 198 °C
CCn1c(=S)sc2c(=O)[nH]c(C(F)(F)F)nc21 [Compound 2a, 3-ethyl-2-thioxo-5-(trifluoromethyl)-2,3-dihydro[1, 3]thiazolo[4,5-d]pyrimidin-7(6H)-one]	429 ± 17.5	434 ± 17.7	251 ± 10.2	519 ± 21.1	521 ± 21.2	615 ± 25	462	–	–
Fc1ccc(CNc2nc(-c3ccc(Cl)cc3)nc3c2sc(=S)n3-c2ccccc2)cc1 [VI]	–	–	–	–	–	–	–	48.46	Growth % of the most sensitive cell line (SF-295): −43.11%
O=c1[nH]c(-c2ccc(F)cc2)nc2c1sc(=S)n2-c1ccccc1 [II]	–	–	–	–	–	–	–	106.11	Growth % of the most sensitive cell line (HOP-92): 55.97%
